Results: PubChem BioAssay AID330 (DTP/NCI, 2004)
Values joined by “and” are separate entries in the source; they are usually repeats but may differ in a detail not shown here. Equal entries are not always repeated. Toxic doses and inconclusive results are not listed.

System: P388 leukemia ip, CD2F1 mice, survival T/C
Experiment: NCI In Vivo Anticancer Drug Screen. Data for tumor model P388 Leukemia (intraperitoneal) in CD2F1 (CDF1) mice
Conditions: endpoint: median survival time, higher = longer survival
Outline: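 Mice carrying the transplanted tumor received test compound or vehicle. Survival was recorded in each group, and the value is the treated-group measurement divided by that of the vehicle-treated control group.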

[1] = dose: 60.0 mg/kg/injection, schedule: Q01DX005 (ip), vehicle: saline with Tween-80
[2] = dose: 120.0 mg/kg/injection, schedule: Q01DX005 (ip), vehicle: saline with Tween-80
[3] = dose: 240.0 mg/kg/injection, schedule: Q01DX005 (ip), vehicle: saline with Tween-80
[4] = dose: 50.0 mg/kg/injection, schedule: Q01DX005 (ip), vehicle: saline with Tween-80
[5] = dose: 100.0 mg/kg/injection, schedule: Q01DX005 (ip), vehicle: saline with Tween-80
[6] = dose: 200.0 mg/kg/injection, schedule: Q01DX005 (ip), vehicle: saline with Tween-80
[7] = dose: 50.0 mg/kg/injection, schedule: Q01DX005 (ip), vehicle: Klucel (hydroxypropylcellulose) (HPC)
[8] = dose: 100.0 mg/kg/injection, schedule: Q01DX005 (ip), vehicle: Klucel (hydroxypropylcellulose) (HPC)
[9] = dose: 200.0 mg/kg/injection, schedule: Q01DX005 (ip), vehicle: Klucel (hydroxypropylcellulose) (HPC)
[10] = dose: 12.5 mg/kg/injection, schedule: Q01DX005 (ip), vehicle: Klucel (hydroxypropylcellulose) (HPC)
[11] = dose: 25.0 mg/kg/injection, schedule: Q01DX005 (ip), vehicle: Klucel (hydroxypropylcellulose) (HPC)
[12] = dose: 50.0 mg/kg/injection, schedule: Q01DX009 (ip), vehicle: Klucel (hydroxypropylcellulose) (HPC)
[13] = dose: 100.0 mg/kg/injection, schedule: Q01DX009 (ip), vehicle: Klucel (hydroxypropylcellulose) (HPC)
[14] = dose: 200.0 mg/kg/injection, schedule: Q01DX009 (ip), vehicle: Klucel (hydroxypropylcellulose) (HPC)

In the case of `CCCCCCCCCCCCCCCCS(=O)(=O)c1ccc(S(=O)(=O)F)cc1NC(C)=O`, the T/C (dose: 50.0 mg/kg/injection, schedule: Q04DX003 (ip), vehicle: saline sonified) is reported as 104 % of control, the T/C (dose: 100.0 mg/kg/injection, schedule: Q04DX003 (ip), vehicle: saline sonified) is reported as 95 % of control and the T/C (dose: 200.0 mg/kg/injection, schedule: Q04DX003 (ip), vehicle: saline sonified) is reported as 100 % of control.

With `S=C(Nc1ccc(I)cc1)SCc1ccc(Cl)cc1` the T/C (dose: 50.0 mg/kg/injection, schedule: Q01DX009 (ip), vehicle: suspension in saline) was 104 % of control, the T/C (dose: 100.0 mg/kg/injection, schedule: Q01DX009 (ip), vehicle: suspension in saline) was 111 % of control and the T/C (dose: 200.0 mg/kg/injection, schedule: Q01DX009 (ip), vehicle: suspension in saline) was 119 % of control.

With `CNC(=O)OCc1c2ccncc2c(C)c2c1[nH]c1ccccc12` the T/C (dose: 6.25 mg/kg/injection, schedule: Q04DX002 (ip), vehicle: saline with Tween-80) was 163 % of control, the T/C (dose: 12.5 mg/kg/injection, schedule: Q04DX002 (ip), vehicle: saline with Tween-80) was 150 % of control and the T/C (dose: 25.0 mg/kg/injection, schedule: Q04DX002 (ip), vehicle: saline with Tween-80) was 153 % of control and 167 % of control. The T/C (dose: 50.0 mg/kg/injection, schedule: Q04DX002 (ip), vehicle: saline with Tween-80) was 109 % of control.

In the case of `COC(=O)/C=C(/C(=O)OC)N(O)C(=O)CN1C(=O)c2ccccc2C1=O`, the T/C [1] is reported as 102 % of control, the T/C [2] is reported as 100 % of control and the T/C [3] is reported as 101 % of control.

For `CCO/C=C1/N=C(c2ccc(OC)cc2OC)OC1=O`, the T/C [1] was 95 % of control, the T/C [2] was 104 % of control and the T/C [3] was 106 % of control.

With `CCOc1c(N=Nc2ccc(OC)cc2)c(-c2ccccc2)nn1C(N)=S` the T/C [4] was 100 % of control, the T/C [5] was 100 % of control and the T/C [6] was 102 % of control.

For `O=C1CN2CCN3CC(=O)NC(=O)[C@H]3[C@@H]2C(=O)N1`, the T/C [1] was 96 % of control, the T/C [2] was 96 % of control and the T/C [3] was 98 % of control.

With `CN(C)CCCC[N+](C)(C)Cc1ccc(C[N+](C)(C)CCCC[N+](C)(C)Cc2ccc(CCl)cc2)cc1` the T/C (dose: 3.12 mg/kg/injection, schedule: Q04DX003 (ip), vehicle: saline) was 100 % of control, the T/C (dose: 6.25 mg/kg/injection, schedule: Q04DX003 (ip), vehicle: saline) was 94 % of control and the T/C (dose: 12.5 mg/kg/injection, schedule: Q04DX003 (ip), vehicle: saline) was 100 % of control and 111 % of control and 96 % of control. For the same compound, the T/C (dose: 25.0 mg/kg/injection, schedule: Q04DX003 (ip), vehicle: saline) was 100 % of control and 113 % of control.

In the case of `CCc1cccc(C)c1N1C(=O)C(=O)C(c2nc3ccccc3o2)/C(=N\NS(=O)(=O)c2ccc(C)cc2)C1=O` (configuration not stated), the T/C [1] is reported as 98 % of control, the T/C [2] is reported as 100 % of control and the T/C [3] is reported as 97 % of control.

With `O=C1NC(O)c2cc(O)ccc2O1` (configuration not stated) the T/C [7] was 100 % of control, the T/C [8] was 100 % of control and the T/C [9] was 111 % of control.

For `CCCCCC/C=C\C(=O)O[C@H]1C(=O)O[C@@H]2C[C@H]3C(C)=C(O)C(=O)C[C@]3(C)[C@H]3[C@@H](O)[C@H](O)[C@@]4(C(=O)OC)OC[C@]32[C@@H]14`, the T/C (dose: 0.75 mg/kg/injection, schedule: Q01DX005 (ip), vehicle: Klucel (hydroxypropylcellulose) (HPC)) was 105 % of control, the T/C (dose: 1.5 mg/kg/injection, schedule: Q01DX005 (ip), vehicle: Klucel (hydroxypropylcellulose) (HPC)) was 111 % of control and the T/C (dose: 3.0 mg/kg/injection, schedule: Q01DX005 (ip), vehicle: Klucel (hydroxypropylcellulose) (HPC)) was 112 % of control. The T/C (dose: 6.0 mg/kg/injection, schedule: Q01DX005 (ip), vehicle: Klucel (hydroxypropylcellulose) (HPC)) was 116 % of control.

In the case of `CCc1nc(N)nc(N)c1-c1ccc(N(C)C)cc1`, the T/C (dose: 6.25 mg/kg/injection, schedule: Q01DX005 (ip), vehicle: Klucel (hydroxypropylcellulose) (HPC)) is reported as 97 % of control, the T/C [10] is reported as 98 % of control and the T/C [11] is reported as 96 % of control. For the same compound, the T/C [7] was 95 % of control.

For `NNC(=O)c1ccccc1O`, the T/C (dose: 50.0 mg/kg/injection, schedule: Q01DX009 (ip), vehicle: saline with Tween-80) was 100 % of control and the T/C (dose: 100.0 mg/kg/injection, schedule: Q01DX009 (ip), vehicle: saline with Tween-80) was 100 % of control.

With `CCOC(=O)CCC[n+]1cccc(C#N)c1` the T/C (dose: 31.25 mg/kg/injection, schedule: Q01DX005 (ip), vehicle: Klucel (hydroxypropylcellulose) (HPC)) was 101 % of control, the T/C (dose: 62.5 mg/kg/injection, schedule: Q01DX005 (ip), vehicle: Klucel (hydroxypropylcellulose) (HPC)) was 103 % of control and the T/C (dose: 125.0 mg/kg/injection, schedule: Q01DX005 (ip), vehicle: Klucel (hydroxypropylcellulose) (HPC)) was 96 % of control.

For `NC(=O)C1=Cc2cccn2-c2ccccc2S1`, the T/C (dose: 60.0 mg/kg/injection, schedule: Q01DX005 (ip), vehicle: Klucel (hydroxypropylcellulose) (HPC)) was 105 % of control and the T/C (dose: 120.0 mg/kg/injection, schedule: Q01DX005 (ip), vehicle: Klucel (hydroxypropylcellulose) (HPC)) was 101 % of control.

For `O=C(CCN1CCCCC1)Nc1ccc(F)c(Cl)c1`, the T/C [4] was 93 % of control, the T/C [5] was 102 % of control and the T/C [6] was 93 % of control.

With `O=C1NCC(N2C(=O)CC3(CCCC3)C2=O)O1` (configuration not stated) the T/C [12] was 100 % of control, the T/C [13] was 94 % of control and the T/C [14] was 91 % of control.

With `CC(C)=NNC(=O)CNc1cccc(C(F)(F)F)c1` the T/C [1] was 97 % of control, the T/C [2] was 100 % of control and the T/C [3] was 106 % of control.

`C1CCN(P2(N3CCCCC3)=NP(N3CCCCC3)(N3CCCCC3)=NP(N3CCCCC3)(N3CCCCC3)=NP(N3CCCCC3)(N3CCCCC3)=N2)CC1` was tested, and the T/C [4] was 96 % of control and the T/C [5] was 88 % of control.

With `Clc1ccc(OCSCOc2ccc(Cl)cc2Cl)c(Cl)c1` the T/C [12] was 106 % of control, the T/C [13] was 99 % of control and the T/C [14] was 101 % of control.

For `CCCCCCCCN(c1ccc(C(=O)NC(CCC(=O)OCC)C(=O)OCC)cc1)S(=O)(=O)c1ccc(C)cc1` (configuration not stated), the T/C (dose: 12.5 mg/kg/injection, schedule: Q04DX003 (ip), vehicle: saline with Tween-80) was 104 % of control, the T/C (dose: 25.0 mg/kg/injection, schedule: Q04DX003 (ip), vehicle: saline with Tween-80) was 100 % of control and the T/C (dose: 50.0 mg/kg/injection, schedule: Q04DX003 (ip), vehicle: saline with Tween-80) was 95 % of control.

In the case of `O=C(c1cccc(C(=O)N2CCCC2)n1)N1CCCC1`, the T/C (dose: 60.0 mg/kg/injection, schedule: Q01DX005 (ip), vehicle: saline) is reported as 102 % of control, the T/C (dose: 120.0 mg/kg/injection, schedule: Q01DX005 (ip), vehicle: saline) is reported as 102 % of control and the T/C (dose: 240.0 mg/kg/injection, schedule: Q01DX005 (ip), vehicle: saline) is reported as 109 % of control.

In the case of `COc1cc[c]([Pb]([O]C(C)=O)([O]C(C)=O)[O]C(C)=O)cc1`, the T/C (dose: 100.0 mg/kg/injection, schedule: Q04DX003 (ip), vehicle: saline with Tween-80) is reported as 103 % of control, the T/C (dose: 200.0 mg/kg/injection, schedule: Q04DX003 (ip), vehicle: saline with Tween-80) is reported as 103 % of control and the T/C (dose: 400.0 mg/kg/injection, schedule: Q04DX003 (ip), vehicle: saline with Tween-80) is reported as 111 % of control.

For `CC(NCCCCNC(C)C(=O)O)C(=O)O` (configuration not stated), the T/C (dose: 50.0 mg/kg/injection, schedule: Q01DX005 (ip), vehicle: saline) was 94 % of control, the T/C (dose: 100.0 mg/kg/injection, schedule: Q01DX005 (ip), vehicle: saline) was 103 % of control and the T/C (dose: 200.0 mg/kg/injection, schedule: Q01DX005 (ip), vehicle: saline) was 102 % of control.

With `COc1ccc(C(c2cc3c(cc2O)OCO3)N2CCN(C(c3ccc(OC)c(O)c3)c3cc4c(cc3O)OCO4)CC2)cc1O` (configuration not stated) the T/C [1] was 96 % of control, the T/C [2] was 101 % of control and the T/C [3] was 112 % of control.

With `Nc1ccc(S(=O)(=O)n2c(=O)oc3cc(Cl)ccc32)cc1` the T/C [10] was 100 % of control, the T/C [11] was 93 % of control and the T/C [7] was 102 % of control and 91 % of control.

With `COc1cc(-c2nn(CN3CCN(Cn4nc(-c5cc(OC)c(OC)c(OC)c5)oc4=S)CC3)c(=S)o2)cc(OC)c1OC` the T/C [7] was 97 % of control, the T/C [8] was 87 % of control and the T/C [9] was 93 % of control.

For `Cc1cn2ccccc2c1-c1ccccc1`, the T/C [4] was 111 % of control, the T/C [5] was 108 % of control and the T/C [6] was 106 % of control.

In the case of `COc1ccc2c(c1)OCCCO/N=C(\c1ccccc1)c1ccc(OC)cc1OCCCO/N=C/2c1ccccc1` (tested in a mixture with another compound), the T/C [4] is reported as 103 % of control, the T/C [5] is reported as 103 % of control and the T/C [6] is reported as 98 % of control.

`CN(C)c1ccc(/C=C/c2ccnc3ccccc23)cc1N` was tested, and the T/C (dose: 6.25 mg/kg/injection, schedule: Q01DX009 (ip), vehicle: Klucel (hydroxypropylcellulose) (HPC)) was 98 % of control, the T/C (dose: 12.5 mg/kg/injection, schedule: Q01DX009 (ip), vehicle: Klucel (hydroxypropylcellulose) (HPC)) was 93 % of control and the T/C (dose: 25.0 mg/kg/injection, schedule: Q01DX009 (ip), vehicle: Klucel (hydroxypropylcellulose) (HPC)) was 90 % of control. For the same compound, the T/C [12] was 109 % of control.
